This note sets out measurements from US20250361230A1, “LATS Inhibitors and Uses Thereof” (The USA, as Represented by the Secretary, Dept. of Heath …, priority 2022, published 2025).

Read-outs that look alike come from different tables or passages of the source.

Holding throughout (type): biochemical
In assay [1] the target is T1, LATS2 (Homo sapiens, UniProt Q9NRM7).
T1 sequence (Q9NRM7 1-1088): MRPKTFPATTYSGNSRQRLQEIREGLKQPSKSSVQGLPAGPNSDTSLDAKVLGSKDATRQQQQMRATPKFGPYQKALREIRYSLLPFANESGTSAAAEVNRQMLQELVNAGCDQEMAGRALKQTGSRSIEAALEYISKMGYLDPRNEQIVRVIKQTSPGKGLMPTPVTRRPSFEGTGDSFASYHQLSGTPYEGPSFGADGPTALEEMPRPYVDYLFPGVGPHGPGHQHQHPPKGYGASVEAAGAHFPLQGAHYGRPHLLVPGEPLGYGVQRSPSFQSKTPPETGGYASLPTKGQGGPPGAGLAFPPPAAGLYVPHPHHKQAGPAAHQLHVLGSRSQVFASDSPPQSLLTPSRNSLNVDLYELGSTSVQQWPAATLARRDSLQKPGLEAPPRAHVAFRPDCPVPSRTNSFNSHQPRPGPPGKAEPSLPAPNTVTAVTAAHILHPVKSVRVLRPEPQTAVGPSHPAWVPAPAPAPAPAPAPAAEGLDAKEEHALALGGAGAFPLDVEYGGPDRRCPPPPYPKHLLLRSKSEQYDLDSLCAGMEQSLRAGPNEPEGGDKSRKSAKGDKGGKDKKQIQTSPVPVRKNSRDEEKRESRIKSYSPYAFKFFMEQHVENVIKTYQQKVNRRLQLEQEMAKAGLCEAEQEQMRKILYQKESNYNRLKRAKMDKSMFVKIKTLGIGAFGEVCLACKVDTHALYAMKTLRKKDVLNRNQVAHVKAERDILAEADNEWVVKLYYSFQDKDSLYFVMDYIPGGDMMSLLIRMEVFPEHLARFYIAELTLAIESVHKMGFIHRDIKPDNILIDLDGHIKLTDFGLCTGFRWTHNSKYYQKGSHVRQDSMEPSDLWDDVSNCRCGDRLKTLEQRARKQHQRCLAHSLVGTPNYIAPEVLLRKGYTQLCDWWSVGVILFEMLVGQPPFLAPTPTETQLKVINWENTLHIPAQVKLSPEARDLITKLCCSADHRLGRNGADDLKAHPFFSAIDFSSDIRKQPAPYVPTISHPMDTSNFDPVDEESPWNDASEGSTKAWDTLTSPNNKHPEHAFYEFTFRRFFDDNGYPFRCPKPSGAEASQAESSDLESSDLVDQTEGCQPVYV
Briefly: RBC HotSpot kinase assay (33P-ATP, P81 filter-binding), LATS2. In outline: (§1)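 Substrate in fresh buffer receives cofactors, then kinase, then compound in DMSO for a 20 min room-temperature preincubation. Reactions start with 33P-ATP and run 2 h; phosphorylation is read by P81 filter binding, and IC50 comes from a 10-point curve.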

The target of assay [2] is T2, LATS1 (Homo sapiens, UniProt O95835).
T2 sequence (O95835 1-1130): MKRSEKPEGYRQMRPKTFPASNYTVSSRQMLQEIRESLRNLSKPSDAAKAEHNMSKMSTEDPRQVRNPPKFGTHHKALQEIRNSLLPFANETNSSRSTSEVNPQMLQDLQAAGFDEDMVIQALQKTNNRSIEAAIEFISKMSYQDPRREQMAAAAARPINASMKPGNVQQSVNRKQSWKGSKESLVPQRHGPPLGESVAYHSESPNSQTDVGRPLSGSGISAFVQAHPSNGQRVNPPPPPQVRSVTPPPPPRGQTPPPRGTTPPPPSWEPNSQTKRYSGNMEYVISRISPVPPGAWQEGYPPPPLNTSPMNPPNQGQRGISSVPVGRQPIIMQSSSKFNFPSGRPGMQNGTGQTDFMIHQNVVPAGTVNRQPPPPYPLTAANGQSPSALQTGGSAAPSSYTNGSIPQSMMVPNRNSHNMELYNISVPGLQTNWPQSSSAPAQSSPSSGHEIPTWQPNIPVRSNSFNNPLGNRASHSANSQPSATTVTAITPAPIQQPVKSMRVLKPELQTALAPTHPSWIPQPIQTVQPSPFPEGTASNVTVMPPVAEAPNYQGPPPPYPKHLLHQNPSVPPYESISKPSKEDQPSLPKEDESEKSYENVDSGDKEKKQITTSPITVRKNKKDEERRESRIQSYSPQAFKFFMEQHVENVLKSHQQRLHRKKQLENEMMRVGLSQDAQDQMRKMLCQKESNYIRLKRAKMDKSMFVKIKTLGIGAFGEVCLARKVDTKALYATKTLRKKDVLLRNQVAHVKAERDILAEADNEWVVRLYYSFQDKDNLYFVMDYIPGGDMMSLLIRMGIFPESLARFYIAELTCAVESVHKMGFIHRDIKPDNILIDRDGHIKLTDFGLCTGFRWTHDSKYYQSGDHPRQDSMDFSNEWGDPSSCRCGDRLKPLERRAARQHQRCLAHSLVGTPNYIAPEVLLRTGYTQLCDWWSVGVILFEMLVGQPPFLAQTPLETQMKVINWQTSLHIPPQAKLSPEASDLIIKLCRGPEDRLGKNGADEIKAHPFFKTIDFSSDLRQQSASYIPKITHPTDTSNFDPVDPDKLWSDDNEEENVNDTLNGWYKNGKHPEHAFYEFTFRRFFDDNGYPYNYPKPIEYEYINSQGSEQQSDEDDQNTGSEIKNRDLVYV
Briefly: RBC HotSpot kinase assay (33P-ATP, P81 filter-binding), LATS1. In outline: as §1

Assay [3] deals with AKT (Homo sapiens, UniProt P31749). Briefly: RBC HotSpot kinase assay (33P-ATP, P81 filter-binding), AKT. In outline:
as §1

Setting [4] is: Table 28, biochemical kinase assay, read-out: LATS2 IC50.
Where [5] appears, read: Table 28, biochemical kinase assay, read-out: LATS1 IC50.
The mark [6] stands for this setting: Table 28, biochemical kinase assay, read-out: AKT IC50.

Chain of AKT (P31749 whole entry): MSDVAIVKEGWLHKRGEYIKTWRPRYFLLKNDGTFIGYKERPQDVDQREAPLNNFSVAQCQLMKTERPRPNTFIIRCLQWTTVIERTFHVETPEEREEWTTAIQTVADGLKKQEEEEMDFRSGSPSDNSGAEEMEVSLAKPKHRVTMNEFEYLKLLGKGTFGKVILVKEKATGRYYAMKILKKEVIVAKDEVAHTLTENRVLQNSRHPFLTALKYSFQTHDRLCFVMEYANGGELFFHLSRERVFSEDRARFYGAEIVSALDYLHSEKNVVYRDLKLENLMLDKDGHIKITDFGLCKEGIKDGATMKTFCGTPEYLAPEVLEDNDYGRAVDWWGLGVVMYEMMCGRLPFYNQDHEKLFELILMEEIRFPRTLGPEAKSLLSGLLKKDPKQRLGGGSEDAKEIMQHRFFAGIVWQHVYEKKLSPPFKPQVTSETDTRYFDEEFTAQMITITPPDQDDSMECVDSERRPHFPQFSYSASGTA

Broadly, the IC50 is the concentration needed to halve the response being measured. Regarding `OC1(c2ccc(-c3ccnc4[nH]cc(Br)c34)nc2)C[C@H]2CC[C@@H](C1)N2` (stereo partly drawn) [Compound 119, (1R,5S)-3-(6-(3-bromo-1H-pyrrolo[2,3-b]pyridin-4-yl)pyridin-3-yl)-8-azabicyclo[3.2.1]octan-3-ol], the IC50 in assay [1] amounted to 184 nM; in assay [2], 29.8 nM; in assay [3], 2590 nM.
`CC1CC(O)(c2ccc(-c3ccnc4[nH]cc(Br)c34)cc2Cl)CC(C)N1` (stereo not drawn) [Compound 120, 4-(4-(3-bromo-1H-pyrrolo[2,3-b]pyridin-4-yl)-2-chlorophenyl)-2,6-dimethylpiperidin-4-ol]: the IC50 in assay [1] (setting [4]) stood at 30 nM; in assay [2] (setting [5]) it was 58 nM; in assay [3] (setting [6]), 103 nM.
Taken in the same sequence, the figures for `OC1(c2ccc(-c3ccnc4[nH]cc(Br)c34)cc2Cl)C2CNCC1C2` (stereo not drawn) [Compound 121, 6-(4-(3-bromo-1H-pyrrolo[2,3-b]pyridin-4-yl)-2-chlorophenyl)-3-azabicyclo[3.1.1]heptan-6-ol] were 14.6 nM, 10.2 nM and 307 nM.
On to `OC1(c2ccc(-c3ccnc4[nH]cc(Br)c34)cc2Cl)C[C@H]2CC[C@@H](C1)N2` (stereo partly drawn) [Compound 122, (1R,5S)-3-(4-(3-bromo-1H-pyrrolo[2,3-b]pyridin-4-yl)-2-chlorophenyl)-8-azabicyclo[3.2.1]octan-3-ol], for which the IC50 amounted to 8.9 nM in assay [1] (setting [4]), 5.3 nM in assay [2] (setting [5]) and 51.2 nM in assay [3] (setting [6]).
Turning to `OC1(c2ccc(-c3ccnc4[nH]cc(Br)c34)cc2Cl)CNC1` [Compound 123, 3-(4-(3-bromo-1H-pyrrolo[2,3-b]pyridin-4-yl)-2-chlorophenyl)azetidin-3-ol], the IC50 in assay [1] (setting [4]) came to 7 nM; in assay [2] (setting [5]), 12 nM; in assay [3] (setting [6]) it was 158 nM.
In the same order, the values of `CN1CCC(O)(c2ccc(-c3ccnc4[nH]cc(Br)c34)cc2)CC1` [Compound 124, 4-(4-(3-bromo-1H-pyrrolo[2,3-b]pyridin-4-yl)phenyl)-1-methylpiperidin-4-ol] are 3.7 nM, 5.7 nM and 128 nM.
Taken in the same sequence, the figures for `CC1CN(C)CC(C)C1(O)c1ccc(-c2ccnc3[nH]cc(Br)c23)cc1Cl` (stereo not drawn) [Compound 125, 4-(4-(3-bromo-1H-pyrrolo[2,3-b]pyridin-4-yl)-2-chlorophenyl)-1,3,5-trimethylpiperidin-4-ol] were 7 nM, 14.1 nM and 108 nM.
Taken in the same sequence, the figures for `OC1(c2ccc(-c3ccnc4[nH]cc(-c5cccnc5)c34)cc2)CCNCC1` [Compound 126, 4-(4-(3-(pyridin-3-yl)-1H-pyrrolo[2,3-b]pyridin-4-yl)phenyl)piperidin-4-ol] were 32 nM, 9.1 nM and 245 nM.
Consider `Cc1cncc(-c2c[nH]c3nccc(-c4ccc(C5(O)CCNCC5)cc4)c23)c1` [Compound 127, 4-(4-(3-(5-methylpyridin-3-yl)-1H-pyrrolo[2,3-b]pyridin-4-yl)phenyl)piperidin-4-ol], for which the concentration for half-maximal inhibition (IC50) was found to be 40 nM in assay [1] (setting [4]), 19 nM in assay [2] (setting [5]) and 4300 nM in assay [3] (setting [6]).
Consider `CN1CCC(O)(c2ccc(-c3ccnc4[nH]cc(-c5cccnc5)c34)cc2)CC1` [Compound 128, 1-methyl-4-(4-(3-(pyridin-3-yl)-1H-pyrrolo[2,3-b]pyridin-4-yl)phenyl)piperidin-4-ol], for which the figures for the IC50 in assay [1] (setting [4]), in assay [2] (setting [5]) and in assay [3] (setting [6]) were 36 nM, 31 nM and 2050 nM, respectively.
Consider `CC1CN(C)CC(C)C1(O)c1ccc(-c2ccnc3[nH]cc(F)c23)cc1-c1ccccc1` (stereo not drawn) [Compound 129, 4-(5-(3-fluoro-1H-pyrrolo[2,3-b]pyridin-4-yl)-[1,1′-biphenyl]-2-yl)-1,3,5-trimethylpiperidin-4-ol], for which the results for the IC50 in assay [1] (setting [4]), in assay [2] (setting [5]) and in assay [3] (setting [6]) were 190 nM, 157 nM and 233 nM, respectively.
Consider `C[C@@H]1CNC[C@H](C)C1(O)c1cnc(-c2ccnc3[nH]cc(F)c23)cc1-c1ccccc1` (stereo partly drawn) [Compound 130, (3S,5R)-4-(6-(3-fluoro-1H-pyrrolo[2,3-b]pyridin-4-yl)-4-phenylpyridin-3-yl)-3,5-dimethylpiperidin-4-ol], for which the IC50 in assay [1] (setting [4]) was found to be 381 nM; in assay [2] (setting [5]) it was 146 nM; in assay [3] (setting [6]), 2260 nM.
For `CN1CCC(O)(c2ccc(-c3ccnc4[nH]cc(F)c34)cc2)CC1` [Compound 131, 4-(4-(3-fluoro-1H-pyrrolo[2,3-b]pyridin-4-yl)phenyl)-1-methylpiperidin-4-ol], the results for the IC50 in assay [1] (setting [4]), in assay [2] (setting [5]) and in assay [3] (setting [6]) were 25 nM, 28 nM and 1070 nM, respectively.
Taken in the same sequence, the figures for `CN1CCC(O)(c2ccc(-c3ccnc4[nH]ccc34)cc2)CC1` [Compound 132, 4-(4-(1H-pyrrolo[2,3-b]pyridin-4-yl)phenyl)-1-methylpiperidin-4-ol] were 5.7 nM, 2.9 nM and 490 nM.
Taken in the same sequence, the figures for `CN1[C@@H]2CC[C@H]1CC(O)(c1ccc(-c3ccnc4[nH]cc(F)c34)cc1)C2` (stereo partly drawn) [Compound 133, (1R,5S)-3-(4-(3-fluoro-1H-pyrrolo[2,3-b]pyridin-4-yl)phenyl)-8-methyl-8-azabicyclo[3.2.1]octan-3-ol] were 19.1 nM, 20.1 nM and 390 nM.
On to `CN1CC2CC(C1)C2(O)c1ccc(-c2ccnc3[nH]cc(F)c23)cc1Cl` (stereo not drawn) [Compound 134, 6-(2-chloro-4-(3-fluoro-1H-pyrrolo[2,3-b]pyridin-4-yl)phenyl)-3-methyl-3-azabicyclo[3.1.1]heptan-6-ol], for which the results for the IC50 in assay [1] (setting [4]), in assay [2] (setting [5]) and in assay [3] (setting [6]) were 116 nM, 43.5 nM and 788 nM, respectively.
Taken in the same sequence, the figures for `Cc1nc(-c2ccnc3[nH]ccc23)ccc1C1(O)CCN(C)CC1` [Compound 135, 1-methyl-4-(2-methyl-6-(1H-pyrrolo[2,3-b]pyridin-4-yl)pyridin-3-yl)piperidin-4-ol] were 682 nM, 736 nM and 7960 nM.
Turning to `CN1C[C@H]2CC[C@@H](C1)C2(O)c1ccc(-c2ccnc3[nH]cc(F)c23)cc1Cl` (stereo partly drawn) [Compound 136, (1R,5S,8s)-8-(2-chloro-4-(3-fluoro-1H-pyrrolo[2,3-b]pyridin-4-yl)phenyl)-3-methyl-3-azabicyclo[3.2.1]octan-8-ol], the IC50 in assay [1] (setting [4]) is 118 nM; in assay [2] (setting [5]), 69.8 nM; in assay [3] (setting [6]), 1060 nM.
